# Laboratory results reported in article PMC3914206.
# Target: T1, panel of 442 kinases (Homo sapiens, UniProt O14936)
# T1 construct: purchased KINOMEscan
# T1 sequence (O14936 1-926): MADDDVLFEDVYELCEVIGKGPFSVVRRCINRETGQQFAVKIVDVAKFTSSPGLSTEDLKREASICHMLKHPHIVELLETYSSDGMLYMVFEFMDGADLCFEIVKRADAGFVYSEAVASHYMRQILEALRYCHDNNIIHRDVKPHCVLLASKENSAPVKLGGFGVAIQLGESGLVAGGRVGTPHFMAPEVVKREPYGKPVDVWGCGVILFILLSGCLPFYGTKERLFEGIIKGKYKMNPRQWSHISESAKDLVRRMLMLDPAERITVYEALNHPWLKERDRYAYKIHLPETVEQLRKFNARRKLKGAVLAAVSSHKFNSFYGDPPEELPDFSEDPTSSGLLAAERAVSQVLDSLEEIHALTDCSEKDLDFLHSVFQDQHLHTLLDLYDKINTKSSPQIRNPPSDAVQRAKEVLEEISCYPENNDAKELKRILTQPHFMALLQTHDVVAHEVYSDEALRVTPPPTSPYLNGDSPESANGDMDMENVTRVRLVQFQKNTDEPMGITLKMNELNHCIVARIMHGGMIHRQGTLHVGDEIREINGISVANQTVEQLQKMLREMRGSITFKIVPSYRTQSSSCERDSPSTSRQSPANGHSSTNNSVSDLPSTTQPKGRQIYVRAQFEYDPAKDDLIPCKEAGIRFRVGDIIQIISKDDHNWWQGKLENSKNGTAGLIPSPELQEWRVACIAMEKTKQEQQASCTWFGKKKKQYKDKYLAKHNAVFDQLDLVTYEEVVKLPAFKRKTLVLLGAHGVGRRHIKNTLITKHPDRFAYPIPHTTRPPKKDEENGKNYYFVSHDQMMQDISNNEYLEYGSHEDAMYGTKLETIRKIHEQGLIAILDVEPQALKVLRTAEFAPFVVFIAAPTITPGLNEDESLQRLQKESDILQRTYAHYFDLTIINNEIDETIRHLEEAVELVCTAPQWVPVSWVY
# Assay type: binding
# Conditions: Compound Concentration 10 µM
# From the text: We assessed the selectivity of members of this scaffold using the KINOMEscan methodology across a near comprehensive panel of 442 kinases [[18,27]].
row,SMILES,KINOMEscan: CASK
1,COc1cc(C(=O)N2CCC(N3CCN(C)CC3)CC2)ccc1Nc1ncc2c(n1)N(C)c1ccccc1C(=O)N2C [15 (LRRK2-IN-1)],85
2,COc1cc(C(=O)N2CCC(N3CCN(C)CC3)CC2)ccc1Nc1ncc2c(n1)N1CCc3cccc(c31)C(=O)N2C [Compound 24],100
3,"COc1cc(C(=O)N2CCC(N3CCN(C)CC3)CC2)ccc1Nc1ncc2c(n1)N(C1CCCC1)c1ccccc1C(=O)N2C [Compound 25, 11-cyclopentyl-2-((2-methoxy-4-(4-(4-methylpiperazin-1-yl)piperidine-1-carbonyl)phenyl)amino)-5-methyl-5H-benzo[e]pyrimido[5,4-b][1,4]diazepin-6(11H)-one]",100
4,CCOc1cc(C(=O)N2CCC(N3CCN(C)CC3)CC2)ccc1Nc1ncc2c(n1)N(C1CCCC1)c1ccccc1C(=O)N2C [Compound 26],98
